Results: patent US20170102398A1, “PREDICTING AND REDUCING COGNITIVE DECLINE BASED ON GSK-3 LEVELS” (HUMANETICS CORPORATION, priority 2014, published 2017)

Key:
[1] = subjects with insulin resistance, dosed daily with 20 mg/kg for 28 days; cited from earlier work
[2] = mutagenicity (AMES) tests
Description: (§1) Additional studies of D-pinitol's safety and efficacy included mutagenicity (AMES) tests, which were negative. […] In a phase I safety and pharmacokinetic study of D-pinitol in AD subjects, the time to peak plasma levels was about 90 minutes after administration, and the elimination half-life (t1/2) was 10 hours.

rats = experiment: acute toxicity studies in rats; type: in vivo, rat
Description: as §1

solubility in water = type: physicochemical
Source text: In some embodiments, the D-pinitol can be a component of a dietary supplement or a medical food (e.g., in combination with an edible oil), or a food for special dietary use. Medical foods are, by definition, formulated to be consumed or administered enterally under the supervision of a physician or other medical professional. The manufacture of medical foods typically is done in compliance with FDA Good Manufacturing Practices (GMP) requirements. The term “food for special dietary use” is defined by 21 C.F.R. §105.3, as applied to food for humans, as meaning • particular (as distinguished from general) uses of food, as follows: • (i) Uses for supplying particular dietary needs which exist by reason of a physical, physiological, pathological or other condition, including but not limited to the conditions of diseases, convalescence, pregnancy, lactation, allergic hypersensitivity to food, underweight, and overweight; • (ii) Uses for supplying particular dietary needs which exist by reason of age, including but not limited to the ages of infancy and childhood; • (iii) Uses for supplementing or fortifying the ordinary or usual diet with any vitamin, mineral, or other dietary property. Any such particular use of a food is a special dietary use, regardless of whether such food also purports to be or is represented for general use. […]

[3] = phase I safety and pharmacokinetic study in AD subjects; type: in vivo, human
Description: as §1

SMILES: CO[C@H]1[C@H](O)[C@@H](O)[C@@H](O)[C@H](O)[C@@H]1O [D-pinitol, 3-O-methyl-D-chiro-inositol]
- increase in plasma D-pinitol concentration as compared to baseline [1]: 48 fold
- mutagenicity (AMES) tests [2]: negative
- LD50 (rats): > 2000 mg/kg
- solubility in water (solubility in water): soluble in water
- elimination half-life (t1/2) [3]: 10 h
- time to peak plasma levels ([3]; after administration): about 90 minutes
